pIC50: −log10 of the molar value.
Experiments:
[1] = system: platelets (PAF induced platelet aggregation); assay: inhibition of PAF-induced platelet aggregation in platelet rich plasma; type: cell-based, New Zealand rabbits; conditions: Oryctolagus cuniculus; rabbit platelet rich plasma, 2.5 nM PAF
Procedure: 1--INHIBITION OF THE PLATELETS AGGREGATION ON NEW ZEALAND RABBITS
The experimentation was conducted on platelets with plasma of New Zealand rabbits.
Blood samples were taken from auricular artery and placed in a citrate buffer (3.8 %; pH 7.4); blood was further centrifugated for 15 mn at 1200 RPM.
The tested sample was prepared in DMSO, then poured on platelets rich plasma for 1 mn, then a dose of 2.5 nM of PAF was added.
The determination is made on a Cronolog Coultronics apparatus which determines the transmission percentage corresponding to the maximum height of the peak before the desaggregation.
The percentage of variation of the inhibition with respect to the transmission percentage is calculated (control: pure DMSO).
This method was described in details in LABORATORY INVESTIGATIONS, Vol. 41, No. 3, p. 275, 1979, JEAN-PIERRE CAZENAVE, Dr. MED. , JACQUES BENVENISTE, Dr. MED., AND J. FRASER MUSTARD, M.D., "Aggregation of Rabbits Platelets by Platelet-Activating Factor Is Independent of the Release Reaction and the Arachidonate Pathway and Inhibited by Membrane-Active Drugs".
Five tests made on 5 different rabbits allowed us to calculate the IC50 of the various compounds using the linear regression test.

[2] = system: PAF-induced leukopenia; assay: PAF-induced leukopenia in the guinea pig; type: in vivo; conditions: for Percentage Variation (leukopenia): vs control
Procedure: Male Guinea-pig (400-500 g) were anesthetized with urethane (1.5 g/kg: IP) prior to be tracheotomized and ventilated with a respiratory pump (UGO BASILE) (70-80 breath/minute, 1 ml air/100 g/breath) to abolish spontaneous respiration a pneumothorax was performed. The resistance to inflation was measured with a pressure transducer (UGO BASILE) against an initial pressure of 10 cm H2 O according to Konzett and Rossler. Animals were allocated into groups and were treated or not by the compounds of the invention (0.05, 0.1, 0.5, 1 and 5 mg/kg).The products were given IV 1 hour before challenge with PAF.
The animals were challenged with various doses of PAF ([…]) given intravenously, and the variations in the resistance to inflation were recorded.
Blood samples were collected prior to and 1,5 and 10 minutes following to PAF-challenge. Forty μl of blood were diluted in 10 ml isoton (Coultronics, France); erythrocytes were lysed with Zapoglobin (France) prior leukocytes were counted in a coulter counter. To determine platelet number, 40 μl of blood were diluted in 2 ml isoton and centrifuged at 100 runs per minute for 30 secondes, 100 μl of the supernatant were collected and further diluted in 10 ml isoton prior counting in a coulter counter.

[3] = system: polymorphonuclear leukocytes (PMNs); assay: antagonism of polymorphonuclear leukocyte aggregation induced by PAF; type: cell-based, rat (Wistar); conditions: rat PMNs, PAF 10^-8; for pIC50: Leukocyte
Procedure: Polymorphonuclear leukocytes (PMNs) were obtained as described by A. W. Ford-Hutchinson et al. (Br - J. Pharmacol. 76, 367-371, 1982). Cell suspensions ([…]) were prepared from peritoneal exudates obtained after a 5 ml IP injection of sodium caseinate 12% (w/v) to male Wistar rats, 300 g body weight.
After centrifugation, cells were washed with Hanks and resuspended in MEM/Hepes 30 mM medium (PM=7.4) at a concentration of 10^7 cells/ml. Cytochalasin B (5 μg/ml) was added 10 minutes before trigering aggregation to amplify the PMNs aggregation. The light transmittance through the cell suspension (400 μl) was measured under a 900 R/mn magnetic stirring, with a dual beam aggregometer (Chronolog Corp. Coultronics.)
The control cuvet is the cell suspension diluted to 20% of the cell count with MEM and the difference represents 100% transmittance. Change in transmittance, which occurs when PAF is added, was continuously recorded.
Drugs solubilized in MEM/Hepes were added (4 μl) to PMNs suspension 2 minutes before PAF addition.

[4] = system: PAF-induced [Ca^2+ ]i mobilization, washed rabbits platelets; assay: inhibition of intracytosolic free calcium mobilization induced by PAF in washed rabbit platelets; type: cell-based; conditions: PAF 2×10^-9 M; for inhibition of PAF-induced [Ca^2+ ]i mobilization (in words): 5×10^-7 M; for inhibition at 0.05 µM: Oryctolagus cuniculus, Platelet, 5×10^-8 M, read-out: inhibition of PAF effect on [Ca^2+ ]i
Procedure: Blood was taken from the auricular artery of the rabbit on citric acid/sodium citrate/dextrose and anticoagulan and the washed platelets were prepared according to Ardlie et al., Brit. J. Pharmacology, 19, 7-17, 1970. They were incubated with acetylsalicylic salt (100 μM, 30 minutes) to avoid thromboxane induced aggregation. They were then loaded with the fluorescent calcium indicator dye quin 2 by incubation with quin 2 aceto-methylester (15 μM in DMSO, 20 minutes at room temperature) which penetrates the cell membrane and after hydrolysed is trapped in the platelet. Drugs were preincubated with platelets for 15 minutes simultaneously to CP/CPK mixture which destroys secreted ADP.
Fluorescent measurement was then performed (excitation λ=339 nm, emission λ=494 nm) after PAF addition to platelet suspension. The fluorescence intensity is proportional to the cytosolic free calcium level [Ca^2+ ]i which can be quantified as described by Tsien et al., J. Cell Biol., 94, 325-334, 1982.

Compound	pIC50 [1]	Percentage Decrease of leukocyte number ([2]; 0.1 mg/kg IV, 1 mn)	Percentage Variation (leukopenia) ([2]; 0.1 mg/kg IV, 1 mn)	Percentage Decrease of leukocyte number ([2]; 0.1 mg/kg IV, 5 mn)	Percentage Variation (leukopenia) ([2]; 0.1 mg/kg IV, 5 mn)	Percentage Decrease of leukocyte number ([2]; 0.1 mg/kg IV, 10 mn)	Percentage Variation (leukopenia) ([2]; 0.1 mg/kg IV, 10 mn)	Percentage Decrease of leukocyte number ([2]; 0.5 mg/kg IV, 1 mn)	Percentage Variation (leukopenia) ([2]; 0.5 mg/kg IV, 1 mn) [%]	Percentage Decrease of leukocyte number ([2]; 0.5 mg/kg IV, 5 mn)	Percentage Variation (leukopenia) ([2]; 0.5 mg/kg IV, 5 mn) [%]	Percentage Decrease of leukocyte number ([2]; 0.5 mg/kg IV, 10 mn)	Percentage Decrease of leukocyte number ([2]; 1 mg/kg IV, 1 mn)	Percentage Variation (leukopenia) ([2]; 1 mg/kg IV, 1 mn) [%]	Percentage Decrease of leukocyte number ([2]; 1 mg/kg IV, 5 mn)	Percentage Variation (leukopenia) ([2]; 1 mg/kg IV, 5 mn) [%]	Percentage Decrease of leukocyte number ([2]; 1 mg/kg IV, 10 mn)	Percentage Variation (leukopenia) ([2]; 1 mg/kg IV, 10 mn) [%]	pIC50 [3]	inhibition of PMN aggregation (in words) [3]	further results
CCCCCCCCCCCCCCCCCC1(C)OCC(COC(=O)CCCCC[n+]2ccccc2)O1 (stereo not drawn) [Example 9, 2-heptadecyl 2-methyl 4-[6'-(N-pyridinium)hexanoyloxymethyl] 1,3 dioxolan bromide]	6.39	41.8 +/- 6.50%	+2.5%	31.9 +/- 4.88%	-9.2%	33.5 +/- 4.65%	0.0%	34.6 +/- 6.35%	-15.2	19.0 +/- 6.42%	-34.9	14.6 +/- 5.36%	3.5 +/- 12.60%	-91.4	2.9 +/- 10.51%	-90.1	1.0 +/- 22.62%	-97.0	6.30	dose-dependently inhibit	Percentage Decrease of leukocyte number ([2]; 0.05 mg/kg IV, 1 mn): 45.3 +/- 5.70%; Percentage Variation (leukopenia) ([2]; 0.05 mg/kg IV, 1 mn): +11.0%; Percentage Decrease of leukocyte number ([2]; 0.05 mg/kg IV, 5 mn): 21.6 +/- 3.42%; Percentage Variation (leukopenia) ([2]; 0.05 mg/kg IV, 5 mn): -26.0%; Percentage Decrease of leukocyte number ([2]; 0.05 mg/kg IV, 10 mn): 14.2 +/- 17.30%; Percentage Variation (leukopenia) ([2]; 0.05 mg/kg IV, 10 mn): -57.6%; Percentage Decrease of leukocyte number ([2]; 5 mg/kg IV, 1 mn): 16.5 +/- 2.42%; Percentage Variation (leukopenia) ([2]; 5 mg/kg IV, 1 mn): -59.6%; Percentage Decrease of leukocyte number ([2]; 5 mg/kg IV, 5 mn): 15.9 +/- 0.99%; Percentage Variation (leukopenia) ([2]; 5 mg/kg IV, 5 mn): -45.5%; Percentage Decrease of leukocyte number ([2]; 5 mg/kg IV, 10 mn): 18.7 +/- 5.08%; Percentage Variation (leukopenia) ([2]; 5 mg/kg IV, 10 mn): -44.2%; inhibition of PAF-induced [Ca^2+ ]i mobilization (in words) [4]: totally inhibit; inhibition at 0.05 µM [4]: 44%
CCCCCCCCCCCCCCCCCC1(C)OCC(COC(=O)CCCCC[n+]2cccc3ccccc32)O1 (stereo not drawn) [Example 10, 2-heptadecyl 2-methyl 4-[6'-(N-quinolinium)hexanoyloxymethyl) 1,3-dioxolanbromide]	6.52	38.8 +/- 6.3%	+6.3%	38.9 +/- 5.7%	+35.5%	41.2 +/- 6.5%	+53.2%	17.0 +/- 12.9%	-58.9	9.0 +/- 11.8%	-68.6	-7.6 +/- 17.5%	24.1 +/- 6.8%	-41.0	9.3 +/- 9.4%	-67.6	8.9 +/- 13.2%	-66.9	6.00	dose-dependently inhibit	Percentage Variation (leukopenia) ([2]; 0.5 mg/kg IV, 10 mn): +128.3%; inhibition of PAF-induced [Ca^2+ ]i mobilization (in words) [4]: totally inhibit; inhibition at 0.05 µM [4]: 75%

Reference: patent US4921865A, “Aminoacylates of glycerol acetal” (Societe de Conseils de Recherches et d'Applications …, priority 1987, dated 1990)
